The NIST ThermoML archive (doi:10.1016/j.jct.2018.08.013)
“And” between values parts separate entries of the source, which are not always exact repeats. Equal values may be shown once.

Assay: specific heat capacity at constant pressure; xn = mol fraction of the nth substance listed
Details: 100 kPa, Crystal of intercomponent compound 1, x2 = 0.486

[Te] [tellurium] + [Ga]
Details	specific heat capacity
241.59 K, relaxation calorimetry	244.22 J/K/kg
241.78 K, relaxation calorimetry	242.8 J/K/kg
241.86 K, relaxation calorimetry	243.61 J/K/kg
241.89 K, relaxation calorimetry	243.51 J/K/kg
245.93 K, relaxation calorimetry	243.46 J/K/kg
245.97 K, relaxation calorimetry	243.31 J/K/kg
246.62 K, relaxation calorimetry	244.93 J/K/kg
246.79 K, relaxation calorimetry	243.87 J/K/kg
248.47 K, relaxation calorimetry	241.79 J/K/kg
248.52 K, relaxation calorimetry	242.09 J/K/kg
248.53 K, relaxation calorimetry	241.99 J/K/kg
249.9 K, relaxation calorimetry	242.85 J/K/kg
249.93 K, relaxation calorimetry	242.9 J/K/kg
251.64 K, relaxation calorimetry	245.64 J/K/kg
251.81 K, relaxation calorimetry	244.63 J/K/kg
253.96 K, relaxation calorimetry	242.96 J/K/kg
254 K, relaxation calorimetry	243.06 J/K/kg
256.38 K, relaxation calorimetry	242.14 J/K/kg
256.44 K, relaxation calorimetry	242.35 J/K/kg and 242.65 J/K/kg
256.66 K, relaxation calorimetry	246.25 J/K/kg
256.83 K, relaxation calorimetry	245.08 J/K/kg
258.12 K, relaxation calorimetry	244.12 J/K/kg
258.16 K, relaxation calorimetry	244.02 J/K/kg
260.51 K, Extra sensitive DSC	245.54 J/K/kg
261.66 K, relaxation calorimetry	248.07 J/K/kg
261.82 K, relaxation calorimetry	246.86 J/K/kg
262.18 K, relaxation calorimetry	245.13 J/K/kg
262.22 K, relaxation calorimetry	244.93 J/K/kg
263.12 K, Extra sensitive DSC	246.4 J/K/kg
264.28 K, relaxation calorimetry	243.97 J/K/kg
264.35 K, relaxation calorimetry	244.43 J/K/kg and 244.17 J/K/kg
265.73 K, Extra sensitive DSC	246.3 J/K/kg
266.13 K, relaxation calorimetry	246.15 J/K/kg
266.19 K, relaxation calorimetry	245.59 J/K/kg
266.68 K, relaxation calorimetry	246.55 J/K/kg
266.71 K, relaxation calorimetry	246.55 J/K/kg
266.72 K, relaxation calorimetry	246.4 J/K/kg
268.33 K, Extra sensitive DSC	246.81 J/K/kg
270.07 K, Extra sensitive DSC	246.96 J/K/kg
270.3 K, relaxation calorimetry	248.78 J/K/kg
270.35 K, relaxation calorimetry	247.67 J/K/kg
270.64 K, relaxation calorimetry	247.06 J/K/kg
270.65 K, relaxation calorimetry	246.66 J/K/kg
271.54 K, relaxation calorimetry	248.83 J/K/kg
271.73 K, relaxation calorimetry	246.76 J/K/kg
271.83 K, relaxation calorimetry	246.35 J/K/kg
272.68 K, Extra sensitive DSC	247.06 J/K/kg
272.79 K, relaxation calorimetry	247.62 J/K/kg
272.8 K, relaxation calorimetry	247.31 J/K/kg
273.54 K, relaxation calorimetry	249.19 J/K/kg
273.74 K, relaxation calorimetry	246.71 J/K/kg
273.84 K, relaxation calorimetry	246.55 J/K/kg
275.28 K, Extra sensitive DSC	247.26 J/K/kg
275.55 K, relaxation calorimetry	249.14 J/K/kg
275.75 K, relaxation calorimetry	246.76 J/K/kg
275.85 K, relaxation calorimetry	246.5 J/K/kg
277.54 K, relaxation calorimetry	249.29 J/K/kg
277.75 K, relaxation calorimetry	246.76 J/K/kg
277.85 K, relaxation calorimetry	246.55 J/K/kg
277.88 K, Extra sensitive DSC	247.72 J/K/kg
279.54 K, relaxation calorimetry	249.09 J/K/kg
279.76 K, relaxation calorimetry	246.5 J/K/kg
279.87 K, relaxation calorimetry	246.45 J/K/kg
280.49 K, Extra sensitive DSC	247.87 J/K/kg
281.52 K, relaxation calorimetry	249.09 J/K/kg
281.76 K, relaxation calorimetry	246.25 J/K/kg
281.87 K, relaxation calorimetry	246.1 J/K/kg
283.09 K, Extra sensitive DSC	248.33 J/K/kg
283.53 K, relaxation calorimetry	248.99 J/K/kg
283.78 K, relaxation calorimetry	246.15 J/K/kg
283.87 K, relaxation calorimetry	246.66 J/K/kg
285.53 K, relaxation calorimetry	249.44 J/K/kg
285.7 K, Extra sensitive DSC	248.58 J/K/kg
285.78 K, relaxation calorimetry	246.4 J/K/kg
285.88 K, relaxation calorimetry	246.6 J/K/kg
287.54 K, relaxation calorimetry	249.54 J/K/kg
287.78 K, relaxation calorimetry	246.35 J/K/kg
287.89 K, relaxation calorimetry	246.66 J/K/kg
288.3 K, Extra sensitive DSC	248.89 J/K/kg
289.53 K, relaxation calorimetry	249.65 J/K/kg
289.79 K, relaxation calorimetry	246.55 J/K/kg
289.89 K, relaxation calorimetry	246.86 J/K/kg
290.04 K, Extra sensitive DSC	248.94 J/K/kg
291.53 K, relaxation calorimetry	250.41 J/K/kg
291.8 K, relaxation calorimetry	247.16 J/K/kg
291.9 K, relaxation calorimetry	247.52 J/K/kg
292.64 K, Extra sensitive DSC	249.09 J/K/kg
293.52 K, relaxation calorimetry	251.32 J/K/kg
293.81 K, relaxation calorimetry	248.68 J/K/kg
293.9 K, relaxation calorimetry	248.89 J/K/kg
295.25 K, Extra sensitive DSC	249.29 J/K/kg
295.51 K, relaxation calorimetry	251.37 J/K/kg
295.84 K, relaxation calorimetry	249.34 J/K/kg
295.91 K, relaxation calorimetry	249.34 J/K/kg
297.52 K, relaxation calorimetry	250.81 J/K/kg
297.83 K, relaxation calorimetry	250.71 J/K/kg
297.85 K, Extra sensitive DSC	249.75 J/K/kg
297.93 K, relaxation calorimetry	248.68 J/K/kg
299.53 K, relaxation calorimetry	250.25 J/K/kg
299.85 K, relaxation calorimetry	250.15 J/K/kg
299.94 K, relaxation calorimetry	248.63 J/K/kg
300.45 K, Extra sensitive DSC	249.9 J/K/kg
301.54 K, relaxation calorimetry	251.06 J/K/kg
301.87 K, relaxation calorimetry	250.86 J/K/kg
301.95 K, relaxation calorimetry	249.39 J/K/kg
303.06 K, Extra sensitive DSC	250.51 J/K/kg
303.81 K, relaxation calorimetry	250.56 J/K/kg
303.84 K, relaxation calorimetry	252.33 J/K/kg
303.87 K, relaxation calorimetry	250.51 J/K/kg
305.66 K, Extra sensitive DSC	250.76 J/K/kg
307.4 K, Extra sensitive DSC	250.81 J/K/kg
310 K, Extra sensitive DSC	251.22 J/K/kg
312.6 K, Extra sensitive DSC	251.42 J/K/kg
315.21 K, Extra sensitive DSC	251.88 J/K/kg
317.81 K, Extra sensitive DSC	251.93 J/K/kg
320.41 K, Extra sensitive DSC	252.23 J/K/kg
323.02 K, Extra sensitive DSC	252.48 J/K/kg
325.62 K, Extra sensitive DSC	252.53 J/K/kg
327.36 K, Extra sensitive DSC	252.74 J/K/kg
329.96 K, Extra sensitive DSC	253.04 J/K/kg
332.56 K, Extra sensitive DSC	253.19 J/K/kg
335.17 K, Extra sensitive DSC	253.5 J/K/kg
337.77 K, Extra sensitive DSC	253.7 J/K/kg
340.38 K, Extra sensitive DSC	254 J/K/kg
342.98 K, Extra sensitive DSC	254.41 J/K/kg
345.58 K, Extra sensitive DSC	254.41 J/K/kg
348.19 K, Extra sensitive DSC	254.76 J/K/kg
349.92 K, Extra sensitive DSC	254.76 J/K/kg
352.53 K, Extra sensitive DSC	254.66 J/K/kg
355.13 K, Extra sensitive DSC	255.32 J/K/kg
356.87 K, Extra sensitive DSC	255.07 J/K/kg
358.6 K, Extra sensitive DSC	254.97 J/K/kg
